Laboratory results taken from PubChem BioAssay (NCI).
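GI50 = concentration required for 50% inhibition of growth. At the TGI there is no net growth.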

Legend:
Assay in all cases: NCI-60 cell line screen, 384-well format
[1] = tested on: 786-0 renal
[2] = tested on: A498 renal
[3] = tested on: A549 NSCLC
[4] = tested on: ACHN renal
[5] = tested on: BT-549 breast
[6] = tested on: CAKI-1 renal
[7] = tested on: CCRF-CEM leukemia
[8] = tested on: COLO 205 colon
[9] = tested on: DU-145 prostate
[10] = tested on: HCC-2998 colon
[11] = tested on: HCT-116 colon
[12] = tested on: HCT-15 colon
[13] = tested on: HL-60(TB) leukemia
[14] = tested on: HOP-62 NSCLC
[15] = tested on: HOP-92 NSCLC
[16] = tested on: HT29 colon
[17] = tested on: IGROV1 ovarian
[18] = tested on: K-562 leukemia
[19] = tested on: KM12 colon
[20] = tested on: LOX IMVI melanoma
[21] = tested on: M14 melanoma
[22] = tested on: MALME-3M melanoma
[23] = tested on: MCF7 breast
[24] = tested on: MDA-MB-231 breast
[25] = tested on: MDA-MB-435 melanoma
[26] = tested on: MDA-MB-468 breast
[27] = tested on: MOLT-4 leukemia
[28] = tested on: NCI-H226 lung
[29] = tested on: NCI-H322M lung
[30] = tested on: NCI-H460 NSCLC
[31] = tested on: NCI-H522 lung
[32] = tested on: NCI/ADR-RES ovarian
[33] = tested on: OVCAR-4 ovarian
[34] = tested on: OVCAR-5 ovarian
[35] = tested on: OVCAR-8 ovarian
[36] = tested on: PC-3 prostate
[37] = tested on: RPMI-8226 leukemia
[38] = tested on: RXF 393 renal
[39] = tested on: SF-268 CNS
[40] = tested on: SF-539 CNS
[41] = tested on: SK-MEL-2 melanoma
[42] = tested on: SK-MEL-28 melanoma
[43] = tested on: SK-MEL-5 melanoma
[44] = tested on: SK-OV-3 ovarian
[45] = tested on: SN12C renal
[46] = tested on: SNB-19 CNS
[47] = tested on: SR leukemia
[48] = tested on: SW-620 colon
[49] = tested on: TK-10 renal
[50] = tested on: U251 glioblastoma
[51] = tested on: UACC-257 melanoma
[52] = tested on: UACC-62 melanoma
[53] = tested on: UO-31 renal

## Cc1c(F)c(N)c2c(=O)cc(-c3ccc(NC(=O)[C@@H](N)CCCCN)c(F)c3)oc2c1F
[1]
  GI50: 9.12 µM
  TGI: 21.3 µM
[2]
  GI50: 0.0368 µM
  TGI: 0.182 µM
[3]
  GI50: 1.72 µM
  TGI: 17.1 µM
[4]
  GI50: 11.2 µM
  TGI: 23.3 µM
[5]
  GI50: 5.47 µM
  TGI: 17.9 µM
[6]
  GI50: 1.52 µM
  TGI: 19.5 µM
[7]
  GI50: 1.6 µM
  TGI: 3.08 µM
[8]
  GI50: 6.39 µM
  TGI: 18 µM
[9]
  GI50: 12.5 µM
  TGI: 25 µM
[10]
  GI50: 11.7 µM
  TGI: 24 µM
[11]
  GI50: 1.01 µM
  TGI: 2.57 µM
[12]
  GI50: 8.41 µM
  TGI: 20.6 µM
[13]
  GI50: 0.878 µM
  TGI: 15.4 µM
[14]
  GI50: 9.12 µM
  TGI: 21.5 µM
[15]
  GI50: 4.95 µM
  TGI: 15.7 µM
[16]
  GI50: 13.2 µM
  TGI: 26 µM
[17]
  GI50: 0.0154 µM
  TGI: 0.0561 µM
[18]
  GI50: 1.09 µM
  TGI: 2.85 µM
[19]
  GI50: 2.31 µM
  TGI: 5.46 µM
[20]
  GI50: 10.2 µM
  TGI: 21.9 µM
[21]
  GI50: 2.86 µM
  TGI: 6.82 µM
[22]
  GI50: 4.61 µM
  TGI: 12.1 µM
[23]
  GI50: 0.0266 µM
  TGI: 0.146 µM
[24]
  GI50: 5.54 µM
  TGI: 17.4 µM
[25]
  GI50: 3.27 µM
  TGI: 8.1 µM
[26]
  TGI: 0.0175 µM
[27]
  GI50: 1.57 µM
  TGI: 2.91 µM
[28]
  GI50: 0.0195 µM
  TGI: 0.128 µM
[29]
  GI50: 9.87 µM
  TGI: 21.5 µM
[30]
  GI50: 0.37 µM
  TGI: 2.03 µM
[31]
  GI50: 4.75 µM
  TGI: 18.6 µM
[32]
  GI50: 12.7 µM
  TGI: 25.3 µM
[33]
  GI50: 8.64 µM
  TGI: 21 µM
[34]
  GI50: 0.046 µM
  TGI: 12 µM
[35]
  GI50: 6.35 µM
  TGI: 19.5 µM
[36]
  GI50: 13.3 µM
  TGI: 26.1 µM
[37]
  GI50: 0.804 µM
  TGI: 3.31 µM
[38]
  GI50: 8.49 µM
  TGI: 20.7 µM
[39]
  GI50: 6.37 µM
  TGI: 18.9 µM
[40]
  GI50: 2.27 µM
  TGI: 4.54 µM
[41]
  GI50: 2.98 µM
  TGI: 11.9 µM
[42]
  GI50: 13.4 µM
  TGI: 26.2 µM
[43]
  GI50: 0.378 µM
  TGI: 12.4 µM
[44]
  GI50: 3.17 µM
  TGI: 12 µM
[45]
  GI50: 10.3 µM
  TGI: 22 µM
[46]
  GI50: 11.3 µM
  TGI: 23.4 µM
[47]
  GI50: 1.52 µM
  TGI: 2.89 µM
[48]
  GI50: 2.56 µM
  TGI: 11.5 µM
[49]
  GI50: 0.13 µM
  TGI: 12.6 µM
[50]
  GI50: 1.26 µM
  TGI: 2.6 µM
[51]
  GI50: 0.285 µM
  TGI: 0.884 µM
[52]
  GI50: 0.618 µM
  TGI: 16 µM
[53]
  GI50: 11.1 µM
  TGI: 23.1 µM
